Data on eight compounds can be found in PMC9609098, “Xanthine Oxidase Inhibitory Activity and Chemical Composition of Pistacia chinensis Leaf Essential Oil” (Pharmaceutics, 2022).

The term IC50 denotes the point on the concentration scale where inhibition reaches its midpoint.

In brackets after ≈: the same amount, converted by molar mass. Like-named read-outs stand apart in the source and are kept apart here.

In assay [1] the target is T1, xanthine oxidase (Homo sapiens, UniProt P47989). The note with it: cited from earlier work.
T1 sequence (P47989 whole entry, species assumed): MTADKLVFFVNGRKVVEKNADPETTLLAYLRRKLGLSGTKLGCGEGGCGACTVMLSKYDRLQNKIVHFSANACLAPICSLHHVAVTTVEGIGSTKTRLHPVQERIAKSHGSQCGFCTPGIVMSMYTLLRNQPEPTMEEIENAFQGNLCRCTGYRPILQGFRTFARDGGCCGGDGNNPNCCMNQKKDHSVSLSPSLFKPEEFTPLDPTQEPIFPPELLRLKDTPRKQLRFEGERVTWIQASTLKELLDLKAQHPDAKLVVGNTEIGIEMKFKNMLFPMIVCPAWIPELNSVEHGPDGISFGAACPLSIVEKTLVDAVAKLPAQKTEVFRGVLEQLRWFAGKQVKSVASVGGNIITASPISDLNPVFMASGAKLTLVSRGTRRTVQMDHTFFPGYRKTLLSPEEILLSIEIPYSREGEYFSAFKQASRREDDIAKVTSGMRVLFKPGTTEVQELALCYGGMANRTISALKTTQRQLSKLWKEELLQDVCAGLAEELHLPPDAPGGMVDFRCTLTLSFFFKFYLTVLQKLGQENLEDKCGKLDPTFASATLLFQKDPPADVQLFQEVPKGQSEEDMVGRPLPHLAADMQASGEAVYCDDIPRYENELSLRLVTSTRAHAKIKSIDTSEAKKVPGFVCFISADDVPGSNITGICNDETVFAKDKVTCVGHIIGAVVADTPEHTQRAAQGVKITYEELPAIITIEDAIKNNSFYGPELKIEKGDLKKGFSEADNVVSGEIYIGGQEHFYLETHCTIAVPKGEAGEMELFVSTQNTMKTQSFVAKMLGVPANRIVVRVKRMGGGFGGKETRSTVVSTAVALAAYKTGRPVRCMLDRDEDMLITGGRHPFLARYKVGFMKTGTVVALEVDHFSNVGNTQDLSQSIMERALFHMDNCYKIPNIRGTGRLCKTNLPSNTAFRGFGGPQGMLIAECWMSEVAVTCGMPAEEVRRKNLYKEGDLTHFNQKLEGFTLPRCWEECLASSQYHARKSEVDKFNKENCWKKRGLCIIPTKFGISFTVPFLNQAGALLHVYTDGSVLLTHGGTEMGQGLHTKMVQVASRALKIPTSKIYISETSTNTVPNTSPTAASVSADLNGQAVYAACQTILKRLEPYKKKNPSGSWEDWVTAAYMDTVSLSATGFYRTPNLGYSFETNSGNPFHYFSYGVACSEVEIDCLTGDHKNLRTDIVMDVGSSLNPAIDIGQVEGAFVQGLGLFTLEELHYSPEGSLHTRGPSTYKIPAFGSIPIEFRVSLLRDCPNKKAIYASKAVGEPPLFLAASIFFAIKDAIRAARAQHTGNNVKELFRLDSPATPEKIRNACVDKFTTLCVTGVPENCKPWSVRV
Assay [2] has as its target xanthine oxidase (EC 1.1.3.22) (Homo sapiens, UniProt P47989). The assay is described as follows: biochemical. The note with it: for IC50: read-out: IC50 against xanthine oxidase (converted). The class given is biochemical. On the procedure: Xanthine oxidase inhibitory activity of specimens was evaluated by using in vitro spectrophotometric analysis. Both hypoxanthine and xanthine were used as the substrate in the assay, respectively. We added 117 µL of potassium phosphate buffer (50 mM, pH 7.8), 3 µL of specimen solution, and 60 µL of 0.025 unit/mL xanthine oxidase (EC 1.1.3.22) and mixed well in a 96-well microplate, and the mixture was incubated for 10 min at room temperature (25 °C). We added 100 µL of 0.15 mM substrate (hypoxanthine/xanthine) into the well, and the solution was incubated in the dark for 30 min at 37 °C. Then, 20 µL of 1 N HCl was added to stop the reaction. Absorbance at 290 nm of each well was measured using an ELISA (enzyme-linked immunosorbent assay) microplate reader (SPECTROstar Nano, BMG LABTECH, Offenburg, Germany) after incubation. […] All the experiments were performed in triplicate. Inhibition of the xanthine oxidase inhibitory activity was determined by the following formula: Inhibition (%) = [(Acontrol − Acontrol’s blank) − (Asample − Asample’s blank)/(Acontrol − Acontrol’s blank)] × 100. The IC50, half maximal inhibitory concentration, was calculated from the concentration-response curve of the specimen.

Assay [3] has as its target T1, xanthine oxidase. The note with it: cited from earlier work. This is another data set of the same source.
Assay [4] has as its target T1, xanthine oxidase. The assay is described as follows: Enzyme kinetic study (Lineweaver–Burk plot). The note with it: for Inhibition type on xanthine oxidase: both substrates, hypoxanthine and xanthine.
The mark [5] stands for this setting: Hypoxanthine as the substrate, read-out: IC50 xanthine oxidase inhibition (converted).

Sequence of xanthine oxidase (EC 1.1.3.22) (P47989 whole entry, species assumed): as above

`COC(=O)c1cc(C(=O)O)c[nH]1` [2-metyl ester-1H-pyrrole-4-carboxilyc acid]: the “IC50 xanthine oxidase inhibition” value at xanthine oxidase [1] (Xanthine as the substrate) was 48.86 µg/mL (≈ 289 µM).
Take `CC1=CCC2C(C1)C2(C)C` (stereo not shown) [3-Carene, 3-carene]: in assay [2] (Hypoxanthine as the substrate), the IC50 is 810 µM. Besides, in assay [2] (Xanthine as the substrate), the “activity against xanthine oxidase (in words)” value is “did not display activity”.
For `Oc1ncnc2[nH]ncc12` [Allopurinol, reference compound], the “Inhibition type against xanthine oxidase” value on xanthine oxidase [3] is listed as “competitive-type inhibition”. Also, the “Inhibition Type” value at xanthine oxidase [4] (Hypoxanthine as the substrate) and on xanthine oxidase [4] (Xanthine as the substrate) was “Competitive” each time. Also, the Vmax on xanthine oxidase [4] (Hypoxanthine substrate, inhibitor 0.313 μg/mL) came to 0.00025; on xanthine oxidase [4] (Hypoxanthine substrate, inhibitor 0.625 μg/mL), 0.00024; at xanthine oxidase [4] (Hypoxanthine substrate, inhibitor 1.250 μg/mL), 0.00024; on xanthine oxidase [4] (Hypoxanthine substrate, inhibitor 2.500 μg/mL) it was 0.00024; on xanthine oxidase [4] (Xanthine substrate, inhibitor 0.313 μg/mL) it was 0.00026; at xanthine oxidase [4] (Xanthine substrate, inhibitor 0.625 μg/mL), 0.00026. Also, the Vmax at xanthine oxidase [4] (Xanthine substrate, inhibitor 1.250 μg/mL) came out at 0.00025; on xanthine oxidase [4] (Xanthine substrate, inhibitor 2.500 μg/mL), 0.00026. The “Inhibition type on xanthine oxidase” value on xanthine oxidase [4] is “competitive”.
Consider `C=C(C)[C@H]1CC=C(C)CC1` [Limonene, limonene], for which the “IC50 against xanthine oxidase” value stood at 37.69 ± 2.52 µg/mL (≈ 277 µM) in assay [2] (Hypoxanthine as the substrate) and 48.04 ± 0.78 µg/mL (≈ 353 µM) in assay [2] (Xanthine as the substrate). The figures for the IC50 in assay [2] (Hypoxanthine as the substrate) and in assay [2] (Xanthine as the substrate) were 280 µM and 350 µM, respectively. Further, the “Inhibition Type” value on xanthine oxidase [4] (Hypoxanthine as the substrate) and at xanthine oxidase [4] (Xanthine as the substrate) was “Mixed” in each case. The Vmax on xanthine oxidase [4] (Hypoxanthine substrate, inhibitor 40 μg/mL) was 0.00027; at xanthine oxidase [4] (Hypoxanthine substrate, inhibitor 50 μg/mL), 0.00025; at xanthine oxidase [4] (Hypoxanthine substrate, inhibitor 100 μg/mL), 0.00024; on xanthine oxidase [4] (Hypoxanthine substrate, inhibitor 200 μg/mL), 0.00023; at xanthine oxidase [4] (Xanthine substrate, inhibitor 40 μg/mL), 0.00029; on xanthine oxidase [4] (Xanthine substrate, inhibitor 50 μg/mL) it was 0.00026. For the same compound, the Vmax on xanthine oxidase [4] (Xanthine substrate, inhibitor 100 μg/mL) was found to be 0.00022; at xanthine oxidase [4] (Xanthine substrate, inhibitor 200 μg/mL), 0.0002. For the same compound, the “Inhibition type on xanthine oxidase” value at xanthine oxidase [4] is on record as “mixed-type inhibitor”.
Consider `O=c1cc(-c2ccc(O)cc2)oc2cc(O)cc(O)c12` [apigenin], for which, at xanthine oxidase [1] (setting [5]), the IC50 was 130 µM.
For `O=P(O)(O)O[C@H]1[C@H](OP(=O)(O)O)[C@@H](OP(=O)(O)O)[C@H](OP(=O)(O)O)[C@@H](OP(=O)(O)O)[C@H]1OP(=O)(O)O` [phytic acid], the half-maximal inhibitory concentration (IC50) on xanthine oxidase [1] (Xanthine as the substrate, read-out: IC50 (inhibition of the formation of uric acid)) was approximately 30000 µM.
Turning to `O=c1c(O)c(-c2ccc(O)c(O)c2)oc2cc(O)cc(O)c12` [quercetin], at xanthine oxidase [3], the “Inhibition type against xanthine oxidase” value is recorded as “mixed type”.
As for `C[C@@H]1O[C@@H](OC[C@H]2O[C@@H](Oc3c(-c4ccc(O)c(O)c4)oc4cc(O)cc(O)c4c3=O)[C@H](O)[C@@H](O)[C@@H]2O)[C@H](O)[C@H](O)[C@H]1O` [rutin], the IC50 on xanthine oxidase [1] (setting [5]) is 99.9 µM.
